Assay results taken from the NIST ThermoML archive (doi:10.1021/acs.jced.7b01018).

Conditions: Liquid, Frequency=2 MHz, Single path-length method

CCO [ethanol]
Conditions | speed of sound [m/s]
323.31 K, 1410 kPa | 1070.7
323.31 K, 5245 kPa | 1096.8
323.31 K, 11101 kPa | 1135
323.31 K, 17687 kPa | 1174.5
323.31 K, 23114 kPa | 1204.2
323.31 K, 30237 kPa | 1241.9
323.31 K, 36831 kPa | 1274.5
323.31 K, 43809 kPa | 1306
323.31 K, 50864 kPa | 1337.3
323.31 K, 58500 kPa | 1369.4
323.31 K, 62862 kPa | 1386.2
347.1 K, 1446 kPa | 991.29
347.1 K, 4092 kPa | 1011.8
347.1 K, 7163 kPa | 1035
347.1 K, 14616 kPa | 1085.6
347.1 K, 21177 kPa | 1126.4
347.1 K, 28408 kPa | 1168.1
347.1 K, 35022 kPa | 1203.4
347.1 K, 42067 kPa | 1238.6
347.1 K, 48843 kPa | 1270.3
347.1 K, 54137 kPa | 1294.1
347.1 K, 58348 kPa | 1312.6
347.1 K, 62859 kPa | 1331.6
369.38 K, 1432 kPa | 914.53
369.38 K, 3923 kPa | 936.5
369.38 K, 7109 kPa | 963.26
369.38 K, 11382 kPa | 996.24
369.38 K, 19601 kPa | 1053.8
369.38 K, 27704 kPa | 1104.7
369.38 K, 33060 kPa | 1135.3
369.38 K, 41165 kPa | 1179.1
369.38 K, 49420 kPa | 1220.3
369.38 K, 54796 kPa | 1246.1
369.38 K, 58367 kPa | 1261.5
369.38 K, 65148 kPa | 1291.2
397.28 K, 1546 kPa | 811.26
397.28 K, 4302 kPa | 840.39
397.28 K, 7333 kPa | 870.18
397.28 K, 12482 kPa | 915.79
397.28 K, 18105 kPa | 960.62
397.28 K, 24432 kPa | 1006.2
397.28 K, 29996 kPa | 1043.3
397.28 K, 36074 kPa | 1080.7
397.28 K, 44752 kPa | 1129.5
397.28 K, 49805 kPa | 1156
397.28 K, 58415 kPa | 1198.6
397.28 K, 63790 kPa | 1223.5
422.9 K, 1514 kPa | 701.53
422.9 K, 5675 kPa | 755.36
422.9 K, 9530 kPa | 798.44
422.9 K, 15206 kPa | 853.77
422.9 K, 23492 kPa | 923.37
422.9 K, 31793 kPa | 984.06
422.9 K, 38446 kPa | 1027.7
422.9 K, 47571 kPa | 1082
422.9 K, 53132 kPa | 1112.2
422.9 K, 58734 kPa | 1141.2
422.9 K, 63754 kPa | 1166.2
